In US11000509B2, “Methods and compositions for daily ophthalmic administration of phentolamine to improve visual performance” (Ocuphire Pharma, Inc., priority 2013, dated 2021):
“And” between values parts separate entries of the source, which are not always exact repeats. Equal values may be shown once. Where a name gives a salt, the structure may show the parent alone. Marks after values point to notes of the source that are not given here.

Test system: eyes of patients with pupil size in dim light of greater than 7 mm
Assay: Example 2 clinical study: pupil diameter by NeurOptics pupilometer; one drop oxymetazoline (Visine LR) then one drop test article in Tears Naturale II in each eye
Assay type: in vivo, humans
Details: for Range of pupil diameters: immediately prior to administration
Procedure: Sixteen patients were randomized into four groups (of four subjects each). Each group was treated on three successive study visits separated by at least 4 days with one drop of ophthalmic oxymetazoline solution (Visine LR®) in each eye followed by one drop test article in each eye. The test article was a 0.2% (w/v) phentolamine mesylate solution, 0.4% (w/v) phentolamine mesylate solution, 0.8% (w/v) phentolamine mesylate solution, or placebo. Test articles contained the designed amount of phentolamine mesylate in a solution of Tears Naturale II® (from Alcon Labs). Placebo was just Tears Naturale II® (from Alcon Labs). Tears Naturale II® (from Alcon Labs) contains Dextran 70 (0.1% by weight), Hydroxypropyl Methylcellulose 2910 (0.3% by weight), Polyquarternium-1 (0.001% by weight), potassium chloride, water (purified), sodium borate, sodium chloride, and hydrochloric acid and/or sodium hydroxide as necessary to adjust the pH. The patients' eye redness and pupil diameters were recorded at baseline (i.e., prior to treatment administration), and at 30 minutes, 1 hour, 2 hours, 4 hours, and 8 hours after administration of test articles. The incidence of any treatment-emergent adverse events was also recorded. Total study duration was approximately nine hours.
Eye redness of patients' eyes was evaluated by the research assistant and recorded as a single integer of value 0 (no redness) to 4 (extreme redness) at baseline and each time point after treatment. Pupil diameters were measured to within 0.1 mm for each eye at baseline and each subsequent time point using a NeurOptics™ pupilometer. Monocular high contrast visual acuity was measured for each eye under photopic conditions at baseline and each subsequent time point in a darkened room using a Precision Vision™ High Contrast (100% tint) Visual Acuity Chart (Catalog #2102) backlit by the Precision Vision Illumination Box. Monocular low contrast visual acuity was measured for each eye under photopic conditions at baseline and each subsequent time point in a darkened room using a Precision Vision™ Low Contrast (5% tint) Visual Acuity Chart (Catalog #2186) backlit by the Precision Vision Illumination Box. Effect of treatment on glare was assessed using an experimental test method consisting of a panel with a high wattage central light emitting diode (LED) and a set of 7 lower wattage red LEDs radiating horizontally and vertically from the central light.
Comparisons of changes in mean values within treatment groups were tested for significance using two-tailed paired two sample t-tests with a threshold for significance set at p<0.01 (Bonferroni Correction for multiple paired t-tests). Differences between treatment groups with respect to mean values for pupil size over the course of the study were tested for significance using repeated measure ANOVA (which discards data from subjects lacking any data points). Differences in mean eye redness between treatment groups were evaluated using Kruskal-Wallis nonparametric testing. Differences in means between treatment groups at individual time points were tested for significance using one-way ANOVA.

[1] = 0.2% (w/v) solution, 30 min after treatment
[2] = 0.2% (w/v) solution, 1 hour after treatment
[3] = 0.2% (w/v) solution, 2 hours after treatment
[4] = 0.2% (w/v) solution, 4 hours after treatment
[5] = 0.2% (w/v) solution, 8 hours after treatment
[6] = 0.2% (w/v) solution, Baseline, prior to treatment
[7] = 0.4% (w/v) solution, 30 min after treatment
[8] = 0.4% (w/v) solution, 1 hour after treatment
[9] = 0.4% (w/v) solution, 2 hours after treatment
[10] = 0.4% (w/v) solution, 4 hours after treatment
[11] = 0.4% (w/v) solution, 8 hours after treatment
[12] = 0.4% (w/v) solution, Baseline, prior to treatment
[13] = 0.8% (w/v) solution, 30 min after treatment
[14] = 0.8% (w/v) solution, 1 hour after treatment
[15] = 0.8% (w/v) solution, 2 hours after treatment
[16] = 0.8% (w/v) solution, 4 hours after treatment
[17] = 0.8% (w/v) solution, 8 hours after treatment
[18] = 0.8% (w/v) solution, Baseline, prior to treatment

With `Cc1ccc(N(CC2=NCCN2)c2cccc(O)c2)cc1` [Phentolamine Mesylate, phentolamine mesylate] the Maximum pupil diameter [1] was 9.2 mm, the “Mean change in pupil diameter from baseline” value (“Mean change in pupil diameter” below) [1] was −0.04 mm and the Mean pupil diameter [1] was 7.74 mm. For the same compound, the Minimum pupil diameter [1] was 5.1 mm, the Maximum pupil diameter [2] was 8.9 mm and the “Mean change in pupil diameter” value [2] was −0.24 mm. It also gave a Mean pupil diameter [2] of 7.54 mm, a Minimum pupil diameter [2] of 4.9 mm and a Maximum pupil diameter [3] of 8.4 mm. For the same compound, the “Mean change in pupil diameter” value [3] was −0.75 mm, the Mean pupil diameter [3] was 7.01^c mm and the Minimum pupil diameter [3] was 4.7 mm. The Maximum pupil diameter [4] was 8.0 mm, the “Mean change in pupil diameter” value [4] was −0.69 mm and the Mean pupil diameter [4] was 7.30^d mm. The Minimum pupil diameter [4] was 6.3 mm, the Maximum pupil diameter [5] was 8.5 mm and the “Mean change in pupil diameter” value [5] was −0.59 mm. For the same compound, the Mean pupil diameter [5] was 7.18 mm, the Minimum pupil diameter [5] was 4.7 mm and the “Range of pupil diameters” value (0.2% (w/v) solution, Baseline) was 5.2-8.8 mm. For the same compound, the Maximum pupil diameter [6] was 8.8 mm, the Mean pupil diameter [6] was 7.8 mm and 7.78 mm and the Minimum pupil diameter [6] was 5.2 mm. For the same compound, the “change from baseline in mean pupil diameter, significance” value (0.2%, 0.4% and 0.8% (w/v), by one hour post treatment, p<0.01) was “significant”, the “mean pupil diameter between different doses” value (0.2%, 0.4%, 0.8% (w/v), any time point) was “no statistically significant differences” and the Maximum pupil diameter [7] was 8.8 mm. For the same compound, the “Mean change in pupil diameter” value [7] was 0.00 mm, the Mean pupil diameter [7] was 7.72 mm and the Minimum pupil diameter [7] was 5.6 mm. The Maximum pupil diameter [8] was 8.3 mm, the “Mean change in pupil diameter” value [8] was −0.29 mm and the Mean pupil diameter [8] was 7.41 mm. The Minimum pupil diameter [8] was 5.5 mm, the Maximum pupil diameter [9] was 8.4 mm and the “Mean change in pupil diameter” value [9] was −0.64 mm. It also gave a Mean pupil diameter [9] of 7.05 mm, a Minimum pupil diameter [9] of 5.0 mm and a Maximum pupil diameter [10] of 8.1 mm. The “Mean change in pupil diameter” value [10] was −0.74 mm, the Mean pupil diameter [10] was 7.01 mm and the Minimum pupil diameter [10] was 5.0 mm. For the same compound, the Maximum pupil diameter [11] was 8.6 mm, the “Mean change in pupil diameter” value [11] was −0.74 mm and the Mean pupil diameter [11] was 7.01 mm. For the same compound, the Minimum pupil diameter [11] was 4.8 mm, the “Range of pupil diameters” value (0.4% (w/v) solution, Baseline) was 5.8-8.6 mm and the Maximum pupil diameter [12] was 8.6 mm. The Mean pupil diameter [12] was 7.7 mm and 7.71 mm, the Minimum pupil diameter [12] was 5.8 mm and the Maximum pupil diameter [13] was 9.2 mm. For the same compound, the “Mean change in pupil diameter” value [13] was −0.10 mm, the Mean pupil diameter [13] was 7.87 mm and the Minimum pupil diameter [13] was 5.2 mm. For the same compound, the Maximum pupil diameter [14] was 9.1 mm, the “Mean change in pupil diameter” value [14] was −0.27 mm and the Mean pupil diameter [14] was 7.69 mm. The Minimum pupil diameter [14] was 5.1 mm, the Maximum pupil diameter [15] was 8.7 mm and the “Mean change in pupil diameter” value [15] was −0.66 mm. For the same compound, the Mean pupil diameter [15] was 7.30 mm, the Minimum pupil diameter [15] was 4.7 mm and the Maximum pupil diameter [16] was 8.6 mm. For the same compound, the “Mean change in pupil diameter” value [16] was −0.64 mm, the Mean pupil diameter [16] was 7.32 mm and the Minimum pupil diameter [16] was 5.5 mm. For the same compound, the Maximum pupil diameter [17] was 8.7 mm, the “Mean change in pupil diameter” value [17] was −0.56 mm and the Mean pupil diameter [17] was 7.40 mm. For the same compound, the Minimum pupil diameter [17] was 4.7 mm, the “Range of pupil diameters” value (0.8% (w/v) solution, Baseline) was 4.6-9.3 mm and the Maximum pupil diameter [18] was 9.3 mm. The Mean pupil diameter [18] was 8.0 mm and 7.96 mm, the Minimum pupil diameter [18] was 4.6 mm and the “mean pupil diameter compared to placebo (ad hoc Fisher's test)” value (any concentration (0.2%, 0.4%, 0.8% w/v), 2, 4 and 8 hours) was “significant differences”.
